From US10577363B2, “Substituted piperidine compounds” (EPIZYME, INC., priority 2014, dated 2020)

Legend:
SMYD3 [1] = molecular target: T1, SMYD3 (Homo sapiens (Human), UniProt Q9H7B4); experiment: SMYD3 biochemical assay (SPA, 3H-SAM methylation of MEKK2 protein substrate); details: read-out: SMYD3 Biochem IC50*
Method in brief: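 Full-length native human SMYD3 (E. coli-expressed, tags removed) preincubated with compounds 30 min at room temperature, then reaction started with 3H-SAM and GST-tagged MEKK2 protein in 25 mM Tris-Cl pH 8.0, 1 mM TCEP, 0.005% BSG, 0.005% Tween 20. Quenched with unlabelled SAM (100 uM final); 3H-MEKK2 counted by SPA.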

SMYD3 [2] = molecular target: T1, SMYD3; experiment: SMYD3 cell assay (Trimethyl-MEKK2 In-Cell Western in 293T/17 cells); format: cell-based; details: read-out: SMYD3 Cell IC50*
Method in brief: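 In-Cell Western ratio of trimethyl-Lys260 MEKK2 to anti-flag signal; percent inhibition from DMSO and maximum-inhibition controls, IC50 by non-linear regression, triplicates.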

T1 sequence (Q9H7B4 whole entry): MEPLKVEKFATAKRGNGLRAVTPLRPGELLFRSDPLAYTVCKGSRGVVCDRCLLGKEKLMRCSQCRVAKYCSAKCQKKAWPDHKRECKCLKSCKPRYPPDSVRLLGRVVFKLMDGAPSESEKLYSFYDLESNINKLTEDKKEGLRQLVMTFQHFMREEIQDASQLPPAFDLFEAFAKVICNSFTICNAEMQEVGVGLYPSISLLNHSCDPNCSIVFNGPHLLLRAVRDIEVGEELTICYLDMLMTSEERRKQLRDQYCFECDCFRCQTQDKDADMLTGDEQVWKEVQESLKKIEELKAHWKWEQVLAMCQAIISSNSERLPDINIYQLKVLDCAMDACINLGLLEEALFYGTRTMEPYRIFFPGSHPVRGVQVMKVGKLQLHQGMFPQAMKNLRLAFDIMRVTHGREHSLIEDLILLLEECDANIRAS

Compound	IC50 (SMYD3 [1])	IC50 (SMYD3 [2])
CC(C)N1CCC(CS(=O)(=O)N2[C@@H]3CC[C@H]2C[C@@H](NC(=O)c2cc(C4CC4)on2)C3)CC1 [compound 787, 5-cyclopropyl-N-((1R,3r,5S)-8-(((1-isopropylpiperidin-4-yl)methyl)sulfonyl)-8-azabicyclo[3.2.1]octan-3-yl)isoxazole-3-carboxamide]	0.00138 µM	0.0386 µM
CCc1cc(C(=O)N[C@H]2C[C@H]3CC[C@@H](C2)N3S(=O)(=O)[C@H]2CC[C@H](NCCO)CC2)no1 [compound 788, 5-ethyl-N-((1R,3R,5S)-8-(((1r,4R)-4-((2-hydroxyethyl)amino)cyclohexyl)sulfonyl)-8-azabicyclo[3.2.1]octan-3-yl)isoxazole-3-carboxamide]	0.00142 µM	0.0308 µM
CCc1cc(C(=O)N[C@H]2C[C@H]3CC[C@@H](C2)N3S(=O)(=O)[C@H]2CC[C@H](N)CC2)no1 [compound 789, N-((1R,3R,5S)-8-(((1r,4R)-4-aminocyclohexyl)sulfonyl)-8-azabicyclo[3.2.1]octan-3-yl)-5-ethylisoxazole-3-carboxamide]	0.00159 µM	0.0319 µM
C[C@H]1CN(S(=O)(=O)[C@H]2CC[C@H](N)CC2)CC[C@H]1NC(=O)c1cc(C2CC2)on1 [compound 790, N-((3S,4R)-1-(((1r,4S)-4-aminocyclohexyl)sulfonyl)-3-methylpiperidin-4-yl)-5-cyclopropylisoxazole-3-carboxamide]	0.00181 µM	0.056 µM
O=C(N[C@H]1C[C@H]2CC[C@@H](C1)N2S(=O)(=O)N1CCC(NCCc2ccccc2)CC1)c1cc(C2CC2)on1 [compound 791, 5-cyclopropyl-N-((1R,3r,5S)-8-((4-(phenethylamino)piperidin-1-yl)sulfonyl)-8-azabicyclo[3.2.1]octan-3-yl)isoxazole-3-carboxamide]	0.00182 µM	0.0404 µM
O=C(N[C@H]1C[C@H]2CC[C@@H](C1)N2S(=O)(=O)N1CCC(NCCO)CC1)c1cc(C2CC2)on1 [compound 792, 5-cyclopropyl-N-((1R,3r,5S)-8-((4-((2-hydroxyethyl)amino)piperidin-1-yl)sulfonyl)-8-azabicyclo[3.2.1]octan-3-yl)isoxazole-3-carboxamide]	0.00185 µM	0.0449 µM
CCc1cc(C(=O)N[C@H]2CCN(S(=O)(=O)N3CCC(N)CC3)[C@@H](C)C2)no1 [compound 793, N-((2S,4S)-1-((4-aminopiperidin-1-yl)sulfonyl)-2-methylpiperidin-4-yl)-5-ethylisoxazole-3-carboxamide]	0.00185 µM	0.0263 µM
O=C(N[C@H]1C[C@H]2CC[C@@H](C1)N2S(=O)(=O)N1CCC(NCCCC(F)(F)F)CC1)c1cc(C2CC2)on1 [compound 794, 5-cyclopropyl-N-((1R,3r,5S)-8-((4-((4,4,4-trifluorobutyl)amino)piperidin-1-yl)sulfonyl)-8-azabicyclo[3.2.1]octan-3-yl)isoxazole-3-carboxamide]	0.00187 µM	0.0347 µM
C[C@H]1C[C@@H](NC(=O)c2cc(C3CC3)on2)CCN1S(=O)(=O)CC[C@@H]1CCN(C)C1 [compound 795, 5-cyclopropyl-N-((2S,4S)-2-methyl-1-((2-((S)-1-methylpyrrolidin-3-yl)ethyl)sulfonyl)piperidin-4-yl)isoxazole-3-carboxamide]	0.00187 µM	0.0276 µM
CC1(N)CCN(S(=O)(=O)N2[C@@H]3CC[C@H]2C[C@@H](NC(=O)c2cc(C4CC4)on2)C3)CC1 [compound 796, N-((1R,3r,5S)-8-((4-amino-4-methylpiperidin-1-yl)sulfonyl)-8-azabicyclo[3.2.1]octan-3-yl)-5-cyclopropylisoxazole-3-carboxamide]	0.0019 µM	0.0407 µM
CCc1cc(C(=O)N[C@H]2C[C@H]3CC[C@@H](C2)N3S(=O)(=O)CC2CCN(C)CC2)no1 [compound 797, 5-ethyl-N-((1R,3r,5S)-8-(((1-methylpiperidin-4-yl)methyl)sulfonyl)-8-azabicyclo[3.2.1]octan-3-yl)isoxazole-3-carboxamide]	0.0019 µM	0.0427 µM
CN[C@H]1CC[C@@H](S(=O)(=O)N2[C@@H]3CC[C@H]2C[C@@H](NC(=O)c2cc(C4CC4)on2)C3)CC1 [compound 798, 5-cyclopropyl-N-((1R,3R,5S)-8-(((1s,4S)-4-(methylamino)cyclohexyl)sulfonyl)-8-azabicyclo[3.2.1]octan-3-yl)isoxazole-3-carboxamide]	0.00191 µM	0.0305 µM
CCc1cc(C(=O)N[C@H]2C[C@H]3CC[C@@H](C2)N3S(=O)(=O)N2CCC(N)CC2)no1 [compound 799, N-((1R,3r,5S)-8-((4-aminopiperidin-1-yl)sulfonyl)-8-azabicyclo[3.2.1]octan-3-yl)-5-ethylisoxazole-3-carboxamide]	0.00205 µM	0.0346 µM
CC1CN(S(=O)(=O)N2CC[C@H](NC(=O)c3cc(C4CC4)on3)C[C@@H]2C)CCC1N (stereo partly drawn) [compound 800, N-((2S,4S)-1-((4-amino-3-methylpiperidin-l-yl)sulfonyl)-2-methylpiperidin-4-yl)-5-cyclopropylisoxazole-3-carboxamide]	0.00218 µM	0.0397 µM
NC1C2CN(S(=O)(=O)N3[C@@H]4CC[C@H]3C[C@@H](NC(=O)c3cc(C5CC5)on3)C4)CC12 (stereo partly drawn) [compound 801, N-((1R,3r,5S)-8-((6-amino-3-azabicyclo[3.1.0]hexan-3-yl)sulfonyl)-8-azabicyclo[3.2.1]octan-3-yl)-5-cyclopropylisoxazole-3-carboxamide]	0.00219 µM	0.0277 µM
CNC1CCC(CS(=O)(=O)N2CC[C@H](NC(=O)c3cc(C4CC4)on3)C[C@@H]2C)C1 (stereo partly drawn) [compound 802, 5-cyclopropyl-N-((2S,4S)-2-methyl-1-(((3-(methylamino)cyclopentyl)methyl)sulfonyl)piperidin-4-yl)isoxazole-3-carboxamide]	0.0023 µM	0.027 µM
CC1CC(N)CCN1S(=O)(=O)N1[C@@H]2CC[C@H]1C[C@@H](NC(=O)c1cc(C3CC3)on1)C2 (stereo partly drawn) [compound 803, N-((1R,3r,5S)-8-((4-amino-2-methylpiperidin-1-yl)sulfonyl)-8-azabicyclo[3.2.1]octan-3-yl)-5-cyclopropylisoxazole-3-carboxamide]	0.00231 µM	0.059 µM
C[C@H]1C[C@@H](NC(=O)c2cc(C3CC3)on2)CCN1S(=O)(=O)N1CCC2(CCCN2)CC1 [compound 804, N-((2S,4S)-1-((1,8-diazaspiro[4.5]decan-8-yl)sulfonyl)-2-methylpiperidin-4-yl)-5-cyclopropylisoxazole-3-carboxamide]	0.00236 µM	0.0608 µM
CN(C)C1CCN(S(=O)(=O)N2[C@@H]3CC[C@H]2C[C@@H](NC(=O)c2cc(C4CC4)on2)C3)CC1 [compound 805, 5-cyclopropyl-N-((1R,3r,5S)-8-((4-(dimethylamino)piperidin-1-yl)sulfonyl)-8-azabicyclo[3.2.1]octan-3-yl)isoxazole-3-carboxamide]	0.00239 µM	0.0532 µM
CCC[C@H]1C[C@@H](NC(=O)c2cc(C3CC3)on2)CCN1S(=O)(=O)CCCN [compound 806, N-((2S,4S)-1-((3-aminopropyl)sulfonyl)-2-propylpiperidin-4-yl)-5-cyclopropylisoxazole-3-carboxamide]	0.0024 µM	0.113 µM
